Measurements from the supplement of paper PMC4932681.

What was measured:
Test in all cases: viability inhibition at highest dose (% inhibition); higher = more growth inhibition
[1] = test system: MCF-7; conditions: 72 h
Protocol: (§1)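 Percent inhibition of viability (CellTiter-Glo, 72 h) at the highest tested concentration (D5), normalised to DMSO (0%) and 100 µM benzethonium chloride (100%). Resistant lines and the 'in 1µM tamoxifen' arms were tested in 1 µM 4-OH-tamoxifen.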

[2] = test system: MCF-7 Tam1; conditions: 4-OH-tamoxifen in medium 1 µM; 72 h
Protocol: as §1

[3] = test system: BT-474 Tam2; conditions: 4-OH-tamoxifen in medium 1 µM; 72 h
Protocol: as §1

[4] = test system: BT-474 Tam1; conditions: 4-OH-tamoxifen in medium 1 µM; 72 h
Protocol: as §1

[5] = test system: T-47D Tam1; conditions: 4-OH-tamoxifen in medium 1 µM; 72 h
Protocol: as §1

[6] = test system: ZR-75-1 Tam2; conditions: 4-OH-tamoxifen in medium 1 µM; 72 h
Protocol: as §1

[7] = test system: ZR-75-1; conditions: 72 h
Protocol: as §1

[8] = test system: BT-474; conditions: 72 h
Protocol: as §1

[9] = test system: ZR-75-1 Tam1; conditions: 4-OH-tamoxifen in medium 1 µM; 72 h
Protocol: as §1

[10] = test system: T-47D; conditions: 72 h
Protocol: as §1

[11] = test system: T-47D Tam2; conditions: 4-OH-tamoxifen in medium 1 µM; 72 h
Protocol: as §1

| SMILES | viability inhibition at highest dose ([1]; 4-OH-tamoxifen in medium 0 µM) | viability inhibition at highest dose ([1]; 4-OH-tamoxifen in medium 1 µM) | viability inhibition at highest dose [2] | viability inhibition at highest dose [3] | viability inhibition at highest dose [4] | viability inhibition at highest dose [5] | viability inhibition at highest dose [6] | viability inhibition at highest dose ([7]; 4-OH-tamoxifen in medium 0 µM) | viability inhibition at highest dose ([7]; 4-OH-tamoxifen in medium 1 µM) | viability inhibition at highest dose ([8]; 4-OH-tamoxifen in medium 0 µM) | viability inhibition at highest dose ([8]; 4-OH-tamoxifen in medium 1 µM) | viability inhibition at highest dose [9] | viability inhibition at highest dose ([10]; 4-OH-tamoxifen in medium 0 µM) | viability inhibition at highest dose ([10]; 4-OH-tamoxifen in medium 1 µM) | viability inhibition at highest dose [11] |
| --- | --- | --- | --- | --- | --- | --- | --- | --- | --- | --- | --- | --- | --- | --- | --- |
| C=CCn1c(=O)c2cnc(Nc3ccc(N4CCN(C)CC4)cc3)nc2n1-c1cccc(C(C)(C)O)n1 [MK-1775] (drug 10000 nM) | 51.7 | 35.9 | 6.3 | 30.6 | 40.9 | 39.6 | 1.58 | 21.9 | 14.6 | 25 | 44 | 1.62 | 22.4 | 16.9 | 38.8 |
| O=C(c1cc(Cc2n[nH]c(=O)c3ccccc23)ccc1F)N1CCN(C(=O)C2CC2)CC1 [Olaparib] (drug 10000 nM) | -12.5 | 18 | -1.72 | 6.64 | 11.7 | 3.42 | 6.09 | 2.83 | -2.23 | -3.98 | -18.1 | 9.56 | 10.8 | 0.545 | 13.8 |
| C=C1C[C@@H]2[C@H](CC[C@]3(C)C(=O)CC[C@@H]23)[C@@]2(C)C=CC(=O)C=C12 [Exemestane] (drug 10000 nM) | 19.4 | 7.88 | 3.68 | -0.955 | 0.0289 | 2.32 | -3.66 | -15.1 | -6.66 | 0.814 | 0.09 | 4.25 | -12.5 | -2.8 | 19.2 |
| O=P1(NCCCl)OCCCN1CCCl (stereo not given) [Ifosfamide] (drug 10000 nM) | -17.9 | 17.3 | -4.9 | -0.857 | 2.59 | -0.131 | -4.83 | -8.49 | -7.06 | -8.04 | 1.1 | 2.45 | -16.4 | -8.32 | 1.35 |
| COc1cccc2c1C(=O)c1c(O)c3c(c(O)c1C2=O)C[C@@](O)(C(=O)CO)C[C@@H]3O[C@H]1C[C@H](N)[C@H](O)[C@H](C)O1 [Doxorubicin] (drug 1000 nM) | 76.9 | 66.1 | 56.6 | 16.9 | 68.5 | 77.1 | 73.5 | 62.2 | 82.4 | 65 | 90.4 | 76.4 | 73 | 76.2 | 72.7 |
| Cc1c(C(=O)Nc2ccc(N3C[C@@H](C)O[C@@H](C)C3)nc2)cccc1-c1ccc(OC(F)(F)F)cc1 [Erismodegib (NVP-LDE225)] (drug 10000 nM) | 23.2 | 14.6 | 15.1 | 19 | 15.9 | 4.09 | 7.11 | -0.79 | 17.1 | 18 | 41.1 | 13.1 | 19.8 | 8.8 | 19.2 |
| O=C1CCC(N2C(=O)c3ccccc3C2=O)C(=O)N1 (stereo not given) [Thalidomide] (drug 10000 nM) | 1.74 | 5.08 | 4.57 | 1.4 | 2.81 | 0.973 | -1.28 | 5.91 | 12 | 2.41 | 13.6 | 6.53 | 0.793 | 10.3 | 4.15 |
| Nc1cccc2c1CN(C1CCC(=O)NC1=O)C2=O (stereo not given) [Lenalidomide] (drug 10000 nM) | -4.99 | 29.1 | -1.73 | 2.75 | 5.58 | -2.5 | -0.811 | -8.43 | -6.55 | -5.28 | -16.5 | 2.97 | -20.4 | -6.19 | -4.53 |
| O=C(NC[C@H](O)CO)c1ccncc1Nc1ccc(I)cc1F (drug 10000 nM) | 35.6 | 19.8 | 12.7 | 6.28 | 13.6 | 35.6 | 7.84 | 7.13 | 10 | 17.2 | 48 | 2.34 | 10.4 | -8.51 | 34 |
| C[C@@H]1C[C@H]2[C@@H]3CCC4=CC(=O)C=C[C@]4(C)[C@@]3(F)[C@@H](O)C[C@]2(C)[C@@]1(O)C(=O)CO [Dexamethasone  (Decadron)] (drug 10000 nM) | -5.26 | 18 | -7.5 | -0.0711 | 3.71 | 1.63 | 12.7 | -4.79 | -6.32 | -8.58 | -20.8 | 3.7 | -14.5 | -19 | 10.6 |
| CC[C@]1(O)C[C@@H]2CN(CCc3c([nH]c4ccccc34)[C@@](C(=O)OC)(c3cc4c(cc3OC)N(C)[C@H]3[C@@](O)(C(=O)OC)[C@H](OC(C)=O)[C@]5(CC)C=CCN6CC[C@]43[C@@H]65)C2)C1 [Vinblastine] (drug 1000 nM) | 51.4 | 57.6 | 19.6 | 91.8 | 88 | 55.2 | 35.9 | 24.6 | 34.4 | 43.3 | 87.4 | 30.2 | 14.7 | 22.2 | 57.8 |
| Cc1ccc(Nc2nccc(N(C)c3ccc4c(C)n(C)nc4c3)n2)cc1S(N)(=O)=O [Pazopanib] (drug 10000 nM) | 8.65 | 16.4 | 1.65 | 7.37 | 23.6 | 4.97 | 10.8 | -3.01 | 11.1 | -2.15 | -6.21 | 6.13 | 12.7 | -6.23 | 23.6 |
| COc1cc2c(N3CCN(C(=O)Nc4ccc(OC(C)C)cc4)CC3)ncnc2cc1OCCCN1CCCCC1 [Tandutinib] (drug 1000 nM) | -5.26 | -13.7 | -14.2 | -13.2 | -0.467 | -4.68 | -7.47 | -10 | -3.58 | -11.4 | -9.77 | 1.06 | -12.3 | -11.9 | 5.77 |
| C#Cc1cccc(Nc2ncnc3cc(OC)c(OCCCCCCC(=O)NO)cc23)c1 [CUDC-101] (drug 10000 nM) | 89.6 | 94.5 | 48.3 | 94.4 | 95.6 | 88.4 | 54.5 | 42.7 | 51.5 | 93.9 | 97 | 42.4 | 95.1 | 94.8 | 76.8 |
| CCc1c(C(=O)C(N)=O)c2c(OCC(=O)O)cccc2n1Cc1ccccc1 [Varespladib] (drug 10000 nM) | 13.3 | -9.89 | -3.81 | -5.77 | -12.8 | -7.33 | -6.3 | -0.701 | -2.07 | 0.192 | -17.3 | -2.44 | -1.77 | -10.9 | -7.24 |
| COc1cc2c(cc1O)CC[C@@H]1[C@@H]2CC[C@]2(C)[C@@H](O)CC[C@@H]12 [2-methoxyestradiol  (Panzem)] (drug 10000 nM) | 24.8 | 17.7 | -11.2 | 24.3 | 27.1 | 24.5 | 3.21 | 36.8 | 2.3 | 48.9 | 63.3 | 6.41 | 32.6 | -2.41 | 29.8 |
| CCCCCCCCc1ccc(CCC(N)(CO)CO)cc1 [Fingolimod] (drug 10000 nM) | 94.6 | 71.4 | 11.9 | 95.2 | 96.8 | 62.4 | 55.5 | 40.8 | 52.5 | 94.4 | 96.6 | 45.3 | 69.4 | 91.9 | 59.1 |
| Cn1cncc1[C@@](N)(c1ccc(Cl)cc1)c1ccc2c(c1)c(-c1cccc(Cl)c1)cc(=O)n2C [Tipifarnib  (Zarnestra)] (drug 10000 nM) | 64.4 | 77.7 | 42 | 78.5 | 85.4 | 55.8 | 57.7 | 51 | 50.5 | 42.6 | 77.3 | 57.6 | 28.4 | 14.2 | 44.6 |
| CC(=O)[C@]1(O)Cc2c(O)c3c(c(O)c2[C@@H](O[C@H]2C[C@H](N)[C@H](O)[C@H](C)O2)C1)C(=O)c1ccccc1C3=O [Idarubicin] (drug 1000 nM) | 80.6 | 66.6 | 39.5 | 65 | 87.9 | 83.7 | 62.4 | 61.7 | 52.2 | 77.2 | 96.2 | 55.2 | 68.9 | 59.5 | 45.9 |
| CNC(=O)c1ccccc1Sc1ccc2c(/C=C/c3ccccn3)n[nH]c2c1 [Axitinib] (drug 10000 nM) | 33 | 33.2 | 25 | 23.2 | 41.2 | 24.7 | 22.8 | 3.79 | 19.2 | 22 | 41.5 | 9.18 | 38.7 | 20.7 | 27.1 |
| C[C@@H]1C=C2C(=O)O[C@@H]3CC[C@H](C1)[C@]23O [Galiellalactone] (drug 50000 nM) | 72.3 | 14.4 | -3.64 | 3.76 | 50.9 | 41.4 | 1.46 | -10.5 | -3.25 | -0.142 | 54.5 | 4.34 | 59.8 | 54.7 | 40.6 |
| COc1cc([C@@H]2c3cc4c(cc3[C@@H](O[C@@H]3O[C@@H]5CO[C@@H](c6cccs6)O[C@H]5[C@H](O)[C@H]3O)[C@H]3COC(=O)[C@H]23)OCO4)cc(OC)c1O [Teniposide] (drug 10000 nM) | 55.1 | 28 | 18 | 13.2 | 62.6 | 78.3 | 42.4 | 43.9 | 35.7 | 54.2 | 87.3 | 37 | 54.1 | 36.5 | 46.3 |
| C[C@H]1C[C@@H]2[C@H]([C@@H](O)C[C@@]3(C)[C@H]2CC[C@]3(O)C(=O)CO)[C@@]2(C)C=CC(=O)C=C12 [Methylprednisolone] (drug 10000 nM) | -1.81 | 18.4 | -0.753 | -2.3 | -9.86 | -1.09 | 0.244 | -6.28 | -4.27 | -7.44 | -20.6 | 6.19 | -19.3 | -15.1 | 8.67 |
| NC(=O)Nc1cc(-c2cccc(F)c2)sc1C(=O)N[C@H]1CCCNC1 [AZD7762] (drug 1000 nM) | 35.5 | 5.25 | 2.31 | -14.7 | -13.6 | 18.2 | -5.84 | 10.5 | -0.00544 | -6.57 | -6.16 | -10.3 | -14.8 | 13.8 | 29.3 |
| CO[C@H]1C[C@@H]2CC[C@@H](C)[C@@](O)(O2)C(=O)C(=O)N2CCCC[C@H]2C(=O)O[C@H]([C@H](C)C[C@@H]2CC[C@@H](OP(C)(C)=O)[C@H](OC)C2)CC(=O)[C@H](C)/C=C(\C)[C@@H](O)[C@@H](OC)C(=O)[C@H](C)C[C@H](C)/C=C/C=C/C=C/1C [Ridaforolimus] (drug 100 nM) | 49.7 | 37.1 | 17.7 | 22 | 23.2 | 33.3 | 39.5 | 37.8 | 30.1 | 19.8 | 6.43 | 35.9 | 33.4 | 21.6 | 28.2 |
| CNC(=O)c1cc(Oc2ccc(NC(=O)Nc3ccc(Cl)c(C(F)(F)F)c3)c(F)c2)ccn1 [Regorafenib (BAY 73-4506)] (drug 10000 nM) | 52.7 | 33.5 | 18.1 | 76.2 | 93.1 | 31.3 | 32.6 | 17 | 18.3 | 38 | 73 | 22.4 | 29.1 | 18.2 | 16.3 |
